From US12459940B2, “Oxazole compound as multi-targeted inhibitor of IRAK4 and BTK” (SHANGHAI FOSUN PHARMACEUTICAL INDUSTRIAL DEVELOPMENT CO., …, priority 2019, dated 2025)
pIC50: −log10 of the molar value.

Assays:
TNF-α secretion = test: In vivo pharmacodynamic study of LPS-induced TNF-α secretion in SD rats; conditions: SD rat, oral
Protocol: SD rats were orally given the solvent, the positive drug dexamethasone (DEX, 0.5 mg/kg) and the tested compound, and LPS (1 mg/kg) was intraperitoneally injected 0.5 hours after the administration. Two hours after LPS injection, the animals were euthanized by CO2, and blood samples were collected from the heart and placed in an anticoagulant tube containing EDTA-K2, then partial anticoagulated blood was centrifuged to separate the plasma and the plasma was frozen at −80° C.
The plasma was taken out of the refrigerator at −80° C., thawed at room temperature, and the concentration of TNF-α in the plasma was detected according to the ELISA kit instructions.
The experimental data were expressed by Mean±standard error (Mean±SEM), and the level of TNF-α was expressed by One-way ANOVA, and p<0.05 was considered as a significant difference. The result of in vivo pharmacodynamic study of TNF-α secretion in SD rats induced by […] (LPS) are shown in FIG. 1

[1] = system: TNF-α production in THP-1 cells; test: THP-1 cytological TNFa ELISA assay (LPS-stimulated); type: cell-based; conditions: Homo sapiens, TNF-α in culture supernatant, 150 ng/mL LPS, 18 hours
Protocol: THP-1 human acute […] leukemia cells were purchased from ATCC (Cat #TIB-202) and cultured at 37° C. in 5% CO2 incubator. The composition of medium was RPMI1640 (Gibco, Cat #22400-105), and the supplementary compositions were 10% FBS (Gibco, Cat #10091148); 1% PenStrep (Gibco, Cat #15140); 0.05 mM 2-Mercaptoethanol (Sigma, Cat #M6250).
TNF-α Elisa kit was used to detect the content of TNF-α in cell culture supernatant samples. TNF-α was produced by stimulating THP-1 cells with 150 ng/mL LPS (Sigma, Cat #L6529).
THP-1 cells cultured normally at logarithmic growth stage were seeded in a 96-well plate (Corning #3599) at a certain concentration (1*10^5/100 μL) and then put into a cell incubator for incubation. After two hours, 16.7 μL of different concentrations of the compound to be tested (8*final concentration) were added and incubated in an incubator. After one hour, 16.7 μL of 1200 ng/mL LPS was added and incubated in an incubator. After 18 hours, the culture supernatant samples were collected by centrifugation, and the content of TNF-α could be detected by TNF-α Elisa kit. Finally, OD signals (OD450-OD570) were read on envision board reader.
The OD450-OD570 signal value was converted into a percentage inhibition rate. Inhibition rate %=(ZPE−sample)/(ZPE−HPE)*100.
“HPE” refers to the OD450-OD570 signal value of the control well without LPS stimulated cells, and “ZPE” refers to the OD450-OD570 signal value of the control well with LPS stimulated cells. The IC50 value of the compound was calculated by XLFit in the excel add-in. Y=Bottom+(Top−Bottom)/(1+(IC50/X)^HillSlope). Equation: […]

[2] = system: OCI-LY10 human B-cell lymphoma cells; test: OCI-LY10 cell proliferation inhibition (CellTiter-Glo); type: cell-based; conditions: OCI-Ly10, 72 h, treated for 3 days
Protocol: OCI-LY10 human B-cell lymphoma cells were cultured in a 37° C., 5% CO2 incubator. The composition of medium was IMDM (GIBCO, Cat #12440053); the supplementary compositions were 20% FBS (Hyclone, Cat #SH30084.03); 1% PenStrep (Thermo, Cat #SV30010).
(§1) The tumor cell lines OCI-LY10 and TMD8 were used to detect the effect of the compound on inhibiting tumor cell proliferation in vitro. The tumor cell line was cultured in a 37° C., 5% CO2 incubator according to the culture conditions shown, and passaged regularly, then the cells in the logarithmic growth phase were taken, counted, and spread in a 96-well plate (the cells in each well were adjusted to an appropriate concentration, a total of […] per well was added). After incubating overnight in a 37° C., 5% CO2 incubator, drugs with different concentration gradients (10 μL of drug solution was added) were added and treated for 3 days, then 50 μL of CellTiter-Glo working solution was added to each well, and the cell plate was wrapped with aluminum foil to avoid light. The culture plate was shaken on an orbital shaker for 2 minutes to induce cell lysis, and placed at room temperature for 10 minutes to stabilize the luminescence signal, then the luminescence signal was detected on the 2104 EnVision plate reader.
(§2) The Inhibition rate (IR) of the tested compound was calculated using the following formula: IR (%)=(1−(RLU compound−RLU blank control)/(RLU solvent control−RLU blank control))*100%.
(§3) The inhibition rates of different concentrations of the compounds were calculated in Excel, and then the inhibition curves were made by GraphPad Prism software and the related parameters were calculated, including the minimum inhibition rate, the maximum inhibition rate and IC50.

[3] = system: TMD8 human B-cell lymphoma cells; test: TMD-8 cell proliferation inhibition (CellTiter-Glo); type: cell-based; conditions: TMD8, 72 h, treated for 3 days
Protocol: TMD8 human B-cell lymphoma cells were cultured in a 37° C., 5% CO2 incubator. The composition of medium was RPMI1640 (GIBCO, Cat #22400-089); the supplementary compositions were 10% FBS (Hyclone, Cat #SH30084.03); 1% PenStrep (Thermo, Cat #SV30010).
as §1, §2, §3

**Q.** Which “inhibitory effect on TNF-α secretion induced by LPS” value (TNF-α secretion; LPS 1 mg/kg intraperitoneal 0.5 hours after administration, plasma 2 hours after LPS) does the source give for Cc1cc(-c2nc(C(=O)Nc3cn4cc(CCC(C)(C)O)nc4cc3N3CCCCC3)co2)ccn1 [WX001] here?
**A.** The value was “significant inhibitory effect”.

**Q.** And the “efficacy on LPS-induced TNF-α secretion compared with dexamethasone” value (TNF-α secretion; dose of 20 mpk)?
**A.** Its value is “equivalent to the efficacy of dexamethasone (DEX) at a dose of 0.5 mpk”.

**Q.** What about the pIC50 [1] of the same compound?
**A.** The pIC50 was 6.91.

**Q.** What about the pIC50 [2] of the same compound?
**A.** The pIC50 was 6.89.

**Q.** What about the pIC50 [3] of the same compound?
**A.** The pIC50 was 6.52.
